Assay results: patent US11840686B2, “Modulation of prekallikrein (PKK) expression” (Ionis Pharmaceuticals, Inc., priority 2013, dated 2023)
Strand notation (5' to 3'): a small letter for the sugar, then the base; units joined by * are phosphorothioate-linked, units joined directly phosphodiester-linked; [ ] holds rarer units or linkages, { } end groups; capitals alone tell only the bases. e = 2'-O-(2-methoxyethyl) (MOE); [5mC] = 5-methylcytosine; d = 2'-deoxy (DNA)

System: human PKK mRNA
Experiment: Antisense inhibition of human PKK mRNA in HepaRG cells, 5,000 nM (Example 2)
Assay type: cell-based
In short: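 Percent inhibition of PKK mRNA is reported relative to untreated cells, after adjustment for total RNA by RIBOGREEN. Gapmers of 16–20 nucleosides with 2′-MOE wings were delivered at 5,000 nM by electroporation into HepaRG cells and left for roughly 24 hours before RNA isolation.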

[1] = HepaRG cells, 5,000 nM antisense oligonucleotide, 5-10-5 gapmers, Table 16
[2] = Table 7, HepaRG cells, electroporation with 5,000 nM antisense oligonucleotide, approx. 24 hours, PKK mRNA by RT-PCR (RTS3454), relative to untreated control cells
[3] = HepaRG cells, electroporation, 5,000 nM antisense oligonucleotide, approx. 24 hours, primer probe set RTS3454, relative to untreated control cells, Table 12
[4] = human PKK mRNA, HepaRG cells, 5-10-5 motif oligonucleotides targeting SEQ ID NO: 1 and 10
[5] = HepaRG cells, electroporation with 5,000 nM antisense oligonucleotide, approximately 24 hours, PKK mRNA by RT-PCR (RTS3454), relative to untreated control cells, Table 5 experiment
[6] = Table 9 experiment, HepaRG cells, 20,000 cells per well, electroporation with 5,000 nM antisense oligonucleotide, approx. 24 hours, PKK mRNA by RT-PCR (RTS3454), relative to untreated control cells
[7] = Table 10 experiment, HepaRG cells, 20,000 cells per well, electroporation with 5,000 nM antisense oligonucleotide, approx. 24 hours, PKK mRNA by RT-PCR (RTS3454), relative to untreated control cells
[8] = HepaRG cells, 5,000 nM antisense oligonucleotide, 5-10-5 gapmers, Table 17

Substance: 546969 (eA*eT*e[5mC]*e[5mC]*eA*dA*d[5mC]*d[5mC]*dT*d[5mC]*dT*d[5mC]*dT*d[5mC]*d[5mC]*e[5mC]*eT*eA*eT*e[5mC]; antisense) [compound 546969]
- % inhibition [1]: 53%

Substance: 546239 (eG*eT*eT*e[5mC]*eT*dT*dT*dT*dG*d[5mC]*dA*dG*dG*dT*dT*eA*eA*eA*eA*eG; antisense) [compound 546239]
- % inhibition [2]: 47%

Substance: 546508 (eG*e[5mC]*eA*eG*e[5mC]*dA*dA*dG*dT*dG*d[5mC]*dT*d[5mC]*d[5mC]*d[5mC]*e[5mC]*eA*eT*eG*e[5mC]; antisense) [compound 546508]
- % inhibition [3]: 43%

Substance: 546899 (e[5mC]*eT*eA*e[5mC]*e[5mC]*dT*dA*dT*dA*dA*d[5mC]*dT*d[5mC]*dT*dA*eA*e[5mC]*eA*eG*eT; antisense) [compound 546899]
- % inhibition [4]: 27%

Substance: 548780 (antisense eT*eG*eT*e[5mC]*d[5mC]*dT*dA*dT*dA*dA*d[5mC]*dT*dA*eT*eA*eA*e[5mC]) [compound 548780]
- % inhibition (human PKK mRNA, HepaRG cells, 5,000 nM antisense oligonucleotide, Table 18): 22%

Substance: 547328 (antisense eA*eT*eT*eT*eG*dA*dT*dG*dA*d[5mC]*d[5mC]*dA*d[5mC]*dA*dT*eT*eG*e[5mC]*eT*eT) [compound 547328]
- % inhibition (HepaRG cells, electroporation with 5,000 nM antisense oligonucleotide, approximately 24 hours, PKK mRNA by RT-PCR (RTS3454), relative to untreated control cells, Table 6 experiment): 40%

Substance: 547311 (antisense e[5mC]*eA*e[5mC]*eT*eA*dT*d[5mC]*dT*dT*dT*d[5mC]*dA*dA*dG*dA*eA*eG*e[5mC]*eA*eA) [compound 547311]
- % inhibition [5]: 71%

Substance: 547481 (antisense e[5mC]*e[5mC]*eT*eT*e[5mC]*dT*dT*dT*dA*dT*dA*dG*d[5mC]*d[5mC]*dA*eG*e[5mC]*eA*e[5mC]*eA) [compound 547481]
- % inhibition [6]: 71%
- % inhibition [7]: 77%

Substance: 547625 (antisense e[5mC]*eA*eG*eT*eA*dT*d[5mC]*dA*d[5mC]*dT*dG*dT*d[5mC]*d[5mC]*dT*eA*eT*eG*eT*e[5mC]) [compound 547625]
- % inhibition [4]: 79%

Substance: 547681 (antisense eA*eA*eT*eA*eT*d[5mC]*dA*d[5mC]*dT*dG*dT*dA*d[5mC]*d[5mC]*dT*eA*eT*eA*eT*e[5mC]) [compound 547681]
- % inhibition [1]: 6%

Substance: 546354 (antisense eG*eT*eA*e[5mC]*eT*d[5mC]*dA*dG*d[5mC]*dG*dA*d[5mC]*dT*dT*dT*eG*eG*eT*eG*eT) [compound 546354]
- % inhibition (HepaRG cells, electroporation, 5,000 nM antisense oligonucleotide, approx. 24 hours, primer probe set RTS3454, relative to untreated control cells, Table 11): 47%

Substance: 547579 (eT*eG*eT*e[5mC]*e[5mC]*dT*dA*dT*dA*dA*d[5mC]*dT*d[5mC]*dT*dA*eA*e[5mC]*eA*eG*eT; antisense) [compound 547579]
- % inhibition (Table 13, human PKK mRNA in HepaRG cells, 5-10-5 gapmers): 0%

Substance: 546173 (antisense e[5mC]*eG*eA*eT*eG*dT*dA*d[5mC]*dT*dT*dT*dT*dG*dG*d[5mC]*eA*eG*eG*eG*eT) [compound 546173]
- % inhibition [5]: 84%

Substance: 547544 (antisense eT*e[5mC]*eG*e[5mC]*e[5mC]*dT*dT*dT*dG*dT*dG*dA*dT*dG*d[5mC]*eG*eA*eT*eT*eT) [compound 547544]
- % inhibition [3]: 15%

Substance: 547472 (antisense eT*e[5mC]*eA*e[5mC]*e[5mC]*dT*dT*dT*d[5mC]*dT*d[5mC]*d[5mC]*dT*dT*d[5mC]*eG*eA*eG*eA*eA) [compound 547472]
- % inhibition [6]: 44%
- % inhibition [7]: 42%

Substance: 548713 (DNA e[5mC]*eA*e[5mC]*dT*dG*dT*dA*d[5mC]*dT*dA*dG*dT*dT*eT*e[5mC]*e[5mC]; antisense) [compound 548713]
- % inhibition (HepaRG cells, 5,000 nM antisense oligonucleotide, human PKK mRNA, Table 18): 33%

Substance: 546284 (antisense e[5mC]*eA*e[5mC]*eA*eA*dT*d[5mC]*dT*d[5mC]*dA*dA*dA*dG*dA*dG*eT*eA*eA*e[5mC]*e[5mC]) [compound 546284]
- % inhibition (Table 8, HepaRG cells, electroporation with 5,000 nM antisense oligonucleotide, approx. 24 hours, PKK mRNA by RT-PCR (RTS3454), relative to untreated control cells): 89%

Substance: 546240 (eG*eT*eA*eA*eA*dG*dT*dT*d[5mC]*dT*dT*dT*dT*dG*d[5mC]*eA*eG*eG*eT*eT; antisense) [compound 546240]
- % inhibition [2]: 23%

Substance: 547752 (eG*eT*eG*eG*eT*dT*dG*dG*dT*dG*dG*d[5mC]*dG*dG*dG*eA*eT*e[5mC]*eG*eG; antisense) [compound 547752]
- % inhibition [8]: 41%

Substance: 547018 (eG*eG*eT*eG*eG*d[5mC]*dG*dG*dG*dA*dT*dT*dG*dG*dT*eG*eG*eT*eG*eG; antisense) [compound 547018]
- % inhibition [8]: 58%
